Key:
ICSBP = experiment: Western blot of ICSBP in THP-1 nuclear extracts (Ets-2 DNA element beads); format: cell-based, human
Text: Of the transcription factors that have been analyzed, two factors, ICSBP and c-Rel, seem to be affected by Compound 1/Compound 2 treatment. ICSBP binds indirectly to the Ets-2 site. The primary NFκB trans-activator for IL-12 is the c-Rel/p50 heterodimer. Other dimers (p65/p50 and p50/p50) either lack activity or have inhibitory functions. Thus, c-Rel plays a role in IL-12 transcription as a result of both activation through NFκB and its interaction with ICSBP. […] The membranes were blocked with 5% milk in TBST buffer and then incubated with anti-c-Rel, anti-p65, anti-p50, anti-ICSBP or anti-PU-1 antibody (all the antibodies were purchased from Santa Cruz) at a dilution of 1:500 for 1 h at room temperature or overnight at 4° C. The membranes were washed and incubated with Horseradish Peroxidase-conjugated anti-rabbit IgG or anti-mouse IgG (Amersham, England) at a dilution of 1:2000 at room temperature for 1 h.
The transcription factor ICSBP binds to the Ets-2 element indirectly through binding to PU-1. Nuclear extracts were bound to Ets-2 DNA element beads, the beads isolated to separate bound from free protein, and the proteins analyzed on Western blots using antibodies to either ICSBP or PU-1. Conjugation of Ets-2 DNA to beads was accomplished by the following method. Biotinylated DNA fragment encompassing the IL-12 p40 Ets-2 site (−292 to −196) were synthesized from the 1.3 kb wild-type human IL-12 p40 reporter by PCR using a biotinylated primer as detailed in The Journal of Immunology, 2000, vol 165. pages 271-279. PCR products were purified by the Qiaquick Kit (Qiagen, Chatsworth, Calif.). Two μg of biotinylated DNA were conjugated to 100 μl of streptavidin-hound magnetic beads (Dynabeads, M280, Dynal, Lake Success, N.Y.) in buffer containing 10 mM Tris-HCL, pH 8.0, 1 mM EDTA, 0.1 M NaCl. […] Eluted materials were separated by 10% SDS-PAGE and detected by immunoblot analysis using anti-ICSBP or anti-PU-1 antibody.

human IL-12 p35 promoter = experiment: IL-12 p35 promoter/luciferase reporter in transiently transfected RAW264.7 cells; format: cell-based, murine; conditions: for p35 promoter-driven luciferase expression: RAW264.7, IFN-γ/LPS or IFN-γ/SAC
Description: (§1) As a result of the Northern blot findings, we undertook a study of the p35 and p40 promoter activities. We transiently transfected the murine macrophage cell line RAW264.7 with DNA constructs in which the p35 and p40 promoters directed expression of the luciferase reporter gene. The RAW264.7 cell line was obtained from American Type Culture Collection (Manassas, Va.) and was cultured in DMEM (ATCC, Manassas, Va.) supplemented with 10% FCS (ATCC, Manassas, Va.), and 1% penicillin/Streptomycin (Gibco-BRL, New York, N.Y.).
Both p35 and p40 promoter-driven luciferase production in response to stimulation were determined in the presence or absence of Compound 1 and Compound 2. To construct the human IL-12 p35 and p40 promoter/luciferase reporter constructs, we generated p35 (−1.5 kb to +3 bp) and p40 (−1.3 kb to +56 bp) promoter fragments, which contained several sequence motifs of the human IL-12 p35 and p40 genes. The fragments were generated by PCR from genomic DNA obtained from human PBMC using primers as follows: IL-12 p35 1.5 kb-F: 5′-[…]-3′(SEQ ID NO:3) and IL-12 p35 1.5 kb-R: 5′-[…]-3′ (SEQ ID NO:4); IL-12 p40 −1.3 kb-F: 5′-[…]-3′ (SEQ ID NO:5) and IL-12 p40 1.3 kb-R: 5′-[…]-3′ (SEQ ID NO:6). The deletion in the p40 promoter reporter constructs were generated by PCR with primers as follows: IL-12 p40 −250 bp to +56 bp (p40/−250 bp) F: 5′-[…]-3′(SEQ ID NO:7) and IL-12 p40 −250 bp to +56 bp (p401/−250 bp) R: 5′-TGCTCTGGGCAGGACGGAG-3′ (SEQ ID NO:8); IL-12 p40 −150 bp to +56 bp (p40/−150 bp) F: 5′-[…]-3′ (SEQ ID NO:9) and IL-12 p40 −150 bp to +56 bp (p40/−150 bp) R: 5′-TGCTCTGGGCAGGACGGAG-3′(SEQ ID NO:10). […]
Cells were co-transfected with the vector pCMV (BD Biosciences Clontech) in which the constitutively active CMV promoter directs β-galactosidase expression for the monitoring of transfection efficiency. Luciferase and β-galactosidase activity were determined in cell extracts prepared according to the Luciferase assay system (Promega) and Luminescent n-gal Detection system (BD Biosciences Clontech). […]

human IL-12 p40 promoter = experiment: IL-12 p40 promoter/luciferase reporter in transiently transfected RAW264.7 cells; format: cell-based, murine; conditions: for p40 promoter-driven luciferase expression: RAW264.7, IFN-γ/LPS or IFN-γ/SAC
Description: as §1
Both p35 and p40 promoter-driven luciferase production in response to stimulation were determined in the presence or absence of Compound 1 and Compound 2. To construct the human IL-12 p35 and p40 promoter/luciferase reporter constructs, we generated p35 (−1.5 kb to +3 bp) and p40 (−1.3 kb to +56 bp) promoter fragments, which contained several sequence motifs of the human IL-12 p35 and p40 genes. The fragments were generated by PCR from genomic DNA obtained from human PBMC using primers as follows: IL-12 p35 1.5 kb-F: 5′-[…]-3′(SEQ ID NO:3) and IL-12 p35 1.5 kb-R: 5′-[…]-3′ (SEQ ID NO:4); IL-12 p40 −1.3 kb-F: 5′-[…]-3′ (SEQ ID NO:5) and IL-12 p40 1.3 kb-R: 5′-[…]-3′ (SEQ ID NO:6). The deletion in the p40 promoter reporter constructs were generated by PCR with primers as follows: IL-12 p40 −250 bp to +56 bp (p40/−250 bp) F: 5′-[…]-3′(SEQ ID NO:7) and IL-12 p40 −250 bp to +56 bp (p401/−250 bp) R: 5′-TGCTCTGGGCAGGACGGAG-3′ (SEQ ID NO:8); IL-12 p40 −150 bp to +56 bp (p40/−150 bp) F: 5′-[…]-3′ (SEQ ID NO:9) and IL-12 p40 −150 bp to +56 bp (p40/−150 bp) R: 5′-TGCTCTGGGCAGGACGGAG-3′(SEQ ID NO:10). The resulting PCR products were ligated upstream of the luciferase gene in pGL3-Basic vector (Promega). All constructs were verified by DNA sequencing.
Transfection was accomplished using SuperFect Transfection Reagent (Qiagen) by the described protocol. Total amount of transfect DNA was kept constant by including the respective control plasmids without insertions.
Cells were co-transfected with the vector pCMV (BD Biosciences Clontech) in which the constitutively active CMV promoter directs β-galactosidase expression for the monitoring of transfection efficiency. Luciferase and β-galactosidase activity were determined in cell extracts prepared according to the Luciferase assay system (Promega) and Luminescent n-gal Detection system (BD Biosciences Clontech). Luciferase activity was then normalized using the β-galactosidase value. […] ELISA was performed by the following method. Human IL-12 p70 (heterodimer) was assayed using ELI-PAIR kit from Cell Sciences (Norwood, Mass.), according to the manufacturer's instructions. Human IL-12 p40 was assayed using ELISA kit from Cell Sciences (Norwood, Mass.) according to the manufacturer's instructions.
We then set out to analyze the IL-12 transcriptional promoter elements that played a role in this effect. We performed deletion analyses using the p40 promoter. This promoter, rather than the p35 promoter, was chosen because the transcriptional elements are better defined in the p40 promoter. To identify the IL-12 inhibitor responsive elements involved in the p40 gene transcription activation, three different promoters were constructed and transiently transfected into RAW264.7 cells.
To assess the role of individual p40 promoter transcription elements in more detail, mutations within many of these elements have been generated. […]

In the case of `C(=NNc1nc(OCCc2ccccn2)nc(N2CCOCC2)n1)c1c[nH]c2ccccc12` [Compound 1, N-(1H-indol-3-ylmethylene)-N′-[4-morpholin-4-yl-6-(2-pyridin-2-yl-ethoxy)-[1,3,5]triazin-2-yl]-hydrazine], the “amount of ICSBP protein in nuclear extracts (FIG. 5)” value (ICSBP; THP-1 cells) is reported as “significant reduction”, the “p35 promoter-driven luciferase expression” value (human IL-12 p35 promoter) is reported as “suppressed” and the “p40 promoter-driven luciferase expression” value (human IL-12 p40 promoter) is reported as “suppressed”. For the same molecule, the “IL-12 p40 promoter-driven luciferase activity, deletion construct” value (human IL-12 p40 promoter; RAW264.7, IFN-γ/LPS, promoter containing Ets-2, PU-1, NF-κB and API elements) was “significantly suppressed”.

With `Cc1cccc(C=NNc2cc(N3CCOCC3)nc(OCCc3ccccn3)n2)c1` [Compound 2, N-(3-methyl-benzylidene)-N′-[6-morpholin-4-yl-2-(2-pyridin-2-yl-ethoxy)-pyrimidin-4-yl]-hydrazine] the ICSBP expression (ICSBP) was “reduced”, the “ICSBP in the nuclei of treated cells” value (ICSBP) was “reduced” and the “p35 promoter-driven luciferase expression” value (human IL-12 p35 promoter) was “suppressed”. The “p35 promoter-driven luciferase expression, comparison between compounds” value (human IL-12 p35 promoter; RAW264.7, stimulated by IFN-γ/LPS, Compound 2 compared with Compound 1) was “inhibited more effectively”, the “p40 promoter-driven luciferase expression” value (human IL-12 p40 promoter) was “suppressed” and the “effect of ICSBP over-expression on inhibition of p40 expression” value (human IL-12 p40 promoter; co-transfection of ICSBP with IL-12 promoter-Luc reporter) was “decreased the inhibition”. The “inhibition of expression in NFκB-element mutant p40 promoter construct” value (human IL-12 p40 promoter; site-directed mutant of the NFκB element, IFN-γ/LPS) was “reduced”.

Source: patent US9910031B2, “Compositions and methods for modulating c-Rel-dependent cytokine production” (Synta Pharmaceuticals Corporation, priority 2003, dated 2018)
